Data: patent US20230256108A1, “A DRUG CONJUGATE AND APPLICATIONS THEREOF” (GENEQUANTUM HEALTHCARE (SUZHOU) CO., LTD., priority 2019, published 2023)
Where two headings read alike, the source gives them in different places. Non-standard residues stand in square brackets, D forms with d. Residues, ends and D or L forms follow the SMILES beside them. *: point of attachment. Dolaproine = CO[C@@H]([C@@H]1CCCN1)[C@@H](C)C(=O)O; Hexanoyl(6-maleimido) = O=C1C=CC(=O)N1CCCCCC(=O)*; Dil = CC[C@H](C)[C@H](NC)[C@@H](CC(=O)O)OC; NMeV = CN[C@H](C(=O)O)C(C)C

Tests used:
[1] = system: SK-BR-3; assay: Cytotoxicity, HER2 high-expressing cancer cells; format: cell-based, human
[2] = system: NCI-N87; assay: Cytotoxicity, HER2 high-expressing cancer cells; format: cell-based, human
[3] = system: BT-474; assay: Cytotoxicity, HER2 high-expressing cancer cells; format: cell-based
[4] = system: HCC1954; assay: Cytotoxicity, HER2 high-expressing cancer cells; format: cell-based, human
[5] = system: MDA-MB-231; assay: Cytotoxicity, HER2 low-expressing or HER2-negative cells; format: cell-based; conditions: Homo sapiens
Procedure: (§1) Cytotoxicity experiments were performed using human breast cancer cells MDA-MB-231, MDA-MB-468, which are HER2 low-expressing or HER2-negative.

[6] = system: MDA-MB-468; assay: as above; format: cell-based; conditions: Homo sapiens
Procedure: as §1

| Compound | IC50 [1] [nM] | IC50 [2] [nM] | IC50 [3] [nM] | IC50 [4] [nM] | IC50 ([1]; Homo sapiens, SK-BR-3) [nM] | IC50 ([2]; Homo sapiens, NCI-N87) [nM] | IC50 ([3]; Homo sapiens, BT-474) [nM] | IC50 ([4]; Homo sapiens, HCC1954) [nM] | IC50 [5] [nM] | IC50 [6] [nM] |
| --- | --- | --- | --- | --- | --- | --- | --- | --- | --- | --- |
| CC[C@H](C)[C@@H]([C@@H](CC(=O)N1CCC[C@H]1[C@H](OC)[C@@H](C)C(=O)N[C@@H](Cc1ccccc1)C(=O)O)OC)N(C)C(=O)[C@@H](NC(=O)[C@H](C(C)C)N(C)C(=O)CCCCCN1C(=O)C=CC1=O)C(C)C [mc-MMAF] ({Hexanoyl(6-maleimido)}-[NMeV]V[Dil][Dolaproine]F-OH) | 98.6 | 208 | 56.1 | 116 | – | – | – | – | – | – |
| COc1cc2cc(c1Cl)N(C)C(=O)C[C@H](OC(=O)[C@H](C)N(C)C(=O)CCS)[C@]1(C)O[C@H]1[C@H](C)[C@@H]1C[C@@](O)(NC(=O)O1)[C@H](OC)/C=C/C=C(\C)C2 [DM1] | 1.92 | 6.97 | 6.24 | 2.67 | – | – | – | – | – | – |
| CC[C@H](C)[C@@H]([C@@H](CC(=O)N1CCC[C@H]1[C@H](OC)[C@@H](C)C(=O)N[C@@H](Cc1ccccc1)C(=O)O)OC)N(C)C(=O)[C@@H](NC(=O)[C@@H](NC)C(C)C)C(C)C [MMAF, monomethyl auristatin F] (H-[NMeV]V[Dil][Dolaproine]F-OH) | 54.3 | 41.4 | 44.7 | 39.6 | – | – | – | – | – | – |
| CC[C@H](C)[C@@H]([C@@H](CC(=O)N1CCC[C@H]1[C@H](OC)[C@@H](C)C(=O)N[C@@H](Cc1ccccc1)C(=O)O)OC)N(C)C(=O)[C@H](NC(=O)[C@H](C(C)C)N(C)C(=O)CCCCCN1C(=O)CC(SCC(NC(=O)CCOCCOCCOCCOCCNC(=O)CNC(=O)CNC(=O)CN)C(N)=O)C1=O)C(C)C (stereo partly drawn) [IM102 (ring closed)] | – | – | – | – | 383 | 690 | 267 | 160 | 1710 | 1080 |
